Measurements as given in patent US20200048259A1, “KDM5 INHIBITORS” (priority 2016, published 2020).
pIC50: −log10 of the molar value. Read-outs that look alike come from different tables or passages of the source.

Molecular target: T1, Full-length KDM5B enzyme (Homo sapiens, UniProt Q9UGL1)
T1 construct: recombinant protein from baculovirus-transfected Sf21 cells: full-length KDM5B; MW=176.825 kDa; host or cells: baculovirus-transfected Sf21 insect cells
Test: KDM5B TR-FRET Enzyme Activity Assay (LANCE)
Type: biochemical
Method: KDM5B TR-FRET Enzyme Activity Assay
KDM5B enzymatic activity was determined with the LANCE (Lanthanide Chelate Excite) TR-FRET (Time-resolved fluorescence resonance energy transfer) assay. […] Following a 30 minutes compound and enzyme incubation in a humidified chamber, each reaction was initiated by the addition of 1 μL 1× assay buffer containing […] biotinylated H3K4Me3 peptide, and 500 nM α-ketoglutarate. The final reaction in each well of 5 μL consists of 5 nM KDM5B, 500 nM biotinylated-peptide, and 500 nM α-ketoglutarate. De-methylation reactions were allowed to proceed for 60 minutes. Reactions were immediately quenched by the addition of 5 μL of 2× Lance Detection Buffer (PerkinElmer) with 0.5 mM EDTA and 2 nM of Eu-anti-H3K4Mel-2 antibody, and 30 nM of Streptavidin-conjugated Dylight 650 detection reagents. After 60 minutes incubation with detection reagents, reaction plates were read on a PerkinElmer EnVision plate reader using standard TR-FRET protocol. Briefly, excitation of donor molecules (Eu-chelate-anti-H3K4Me1-2-antibody) with a laser light source at 337 nm produces energy that can be transferred to Dylight-650 acceptor molecules if this donor:acceptor pair is within close proximity.
Fluorescence intensity at both 665 nm (acceptor) and 615 nm (donor) are measured and a TR-FRET ratio calculated for each well (acceptor intensity/donor intensity). IC50 values were determined by 4 parameter robust fit of TR-FRET ratio values vs. (Log 10) compound concentrations.

[1] = 5 nM full-length KDM5B, biotinylated H3K4Me3 peptide, 500 nM α-ketoglutarate, ten point titration 100000 nM to 5.08 nM, read-out: IC50

T1 sequence (Q9UGL1 whole entry): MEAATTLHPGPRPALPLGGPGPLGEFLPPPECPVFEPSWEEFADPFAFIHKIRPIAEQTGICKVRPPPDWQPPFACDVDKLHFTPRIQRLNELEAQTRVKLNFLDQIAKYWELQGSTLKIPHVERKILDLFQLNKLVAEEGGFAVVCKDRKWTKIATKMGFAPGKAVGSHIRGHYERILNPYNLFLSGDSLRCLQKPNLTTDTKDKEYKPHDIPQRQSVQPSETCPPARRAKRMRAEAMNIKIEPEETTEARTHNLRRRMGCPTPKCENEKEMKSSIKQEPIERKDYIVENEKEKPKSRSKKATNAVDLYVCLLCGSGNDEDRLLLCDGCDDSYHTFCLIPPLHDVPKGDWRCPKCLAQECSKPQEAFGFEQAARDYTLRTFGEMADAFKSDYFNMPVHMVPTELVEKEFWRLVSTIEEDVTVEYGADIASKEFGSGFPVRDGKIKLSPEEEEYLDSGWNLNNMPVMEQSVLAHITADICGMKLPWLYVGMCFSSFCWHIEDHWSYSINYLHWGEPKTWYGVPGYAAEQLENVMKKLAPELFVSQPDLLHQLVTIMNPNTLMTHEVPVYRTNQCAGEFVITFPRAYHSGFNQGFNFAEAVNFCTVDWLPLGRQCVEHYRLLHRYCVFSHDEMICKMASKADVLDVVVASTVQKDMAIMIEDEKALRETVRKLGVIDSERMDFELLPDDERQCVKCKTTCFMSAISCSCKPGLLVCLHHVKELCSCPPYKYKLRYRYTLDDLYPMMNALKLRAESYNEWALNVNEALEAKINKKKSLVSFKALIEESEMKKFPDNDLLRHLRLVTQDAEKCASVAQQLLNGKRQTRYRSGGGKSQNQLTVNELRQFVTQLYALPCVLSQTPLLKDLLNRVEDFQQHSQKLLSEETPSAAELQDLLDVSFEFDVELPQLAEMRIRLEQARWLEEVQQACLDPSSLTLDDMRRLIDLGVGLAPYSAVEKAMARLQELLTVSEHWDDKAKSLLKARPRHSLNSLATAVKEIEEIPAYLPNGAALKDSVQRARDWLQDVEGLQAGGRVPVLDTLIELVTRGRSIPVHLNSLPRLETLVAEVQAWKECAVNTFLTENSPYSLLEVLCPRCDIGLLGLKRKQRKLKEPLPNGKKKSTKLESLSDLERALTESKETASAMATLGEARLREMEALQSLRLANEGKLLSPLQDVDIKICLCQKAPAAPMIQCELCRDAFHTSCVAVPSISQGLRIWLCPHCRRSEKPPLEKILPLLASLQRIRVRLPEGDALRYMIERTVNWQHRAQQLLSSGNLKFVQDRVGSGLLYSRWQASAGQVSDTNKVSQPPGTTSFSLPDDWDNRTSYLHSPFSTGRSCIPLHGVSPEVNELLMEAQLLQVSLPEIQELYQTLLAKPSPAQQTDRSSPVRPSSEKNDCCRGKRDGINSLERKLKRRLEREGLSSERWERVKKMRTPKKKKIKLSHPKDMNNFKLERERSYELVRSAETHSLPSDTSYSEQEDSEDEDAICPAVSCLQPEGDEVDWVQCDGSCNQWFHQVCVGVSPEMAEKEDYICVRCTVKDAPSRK

Cc1nc2[nH]c(C3CCC3)cc(=O)n2n1 [Example 7-62, 5-cyclobutyl-2-methyl[1,2,4]triazolo[1,5-a]pyrimidin-7(4H)-one]
pIC50 [1]: 4.20

Cc1nc2[nH]c(C(C)(C)C)cc(=O)n2n1 [Example 7-38, 5-tert-butyl-2-methyl[1,2,4]triazolo[1,5-a]pyrimidin-7(4H)-one]
pIC50: < 4.00

CCc1cc(=O)n2nc(C)nc2[nH]1 [Example 7-12, 5-ethyl-2-methyl-[1,2,4]triazolo[1,5-a]pyrimidin-7(4H)-one]
pIC50 [1]: 4.13

CCCc1cc(=O)n2nc(C)nc2[nH]1 [Example 7-2, 2-methyl-5-propyl[1,2,4]triazolo[1,5-a]pyrimidin-7(4H)-one]
pIC50 [1]: 4.01

Cc1[nH]c2nc(Br)nn2c(=O)c1C(C)C [Example 7-35, 2-bromo-5-methyl-6-(1-methylethyl)[1,2,4]triazolo[1,5-a]pyrimidin-7(4H)-one]
pIC50 [1]: 5.72

Cc1[nH]c2nc(-c3ccc(F)cc3)nn2c(=O)c1C(C)C [Example 7-24, 2-(4-fluorophenyl)-5-methyl-6-(1-methylethyl)[1,2,4]triazolo[1,5-a]pyrimidin-7(4H)-one]
pIC50 [1]: 4.47

Cc1nc2[nH]c(Cc3ccccc3)cc(=O)n2n1 [Example 7-55, 5-benzyl-2-methyl[1,2,4]triazolo[1,5-a]pyrimidin-7(4H)-one]
pIC50 [1]: 4.01

CCc1c(-c2ccccc2)[nH]c2nc(C)nn2c1=O [Example 7-20, 6-ethyl-2-methyl-5-phenyl[1,2,4]triazolo[1,5-a]pyrimidin-7(4H)-one]
pIC50 [1]: 5.40

Cc1[nH]c2nc(CCCO)nn2c(=O)c1C(C)C [Example 7-37, 2-(3-hydroxypropyl)-5-methyl-6-(1-methylethyl)[1,2,4]triazolo[1,5-a]pyrimidin-7(4H)-one]
pIC50 [1]: 4.18

Cc1nc2[nH]c(C(C)C)cc(=O)n2n1 [Example 7-6, 2-methyl-5-(1-methylethyl)[1,2,4]triazolo[1,5-a]pyrimidin-7(4H)-one]
pIC50: < 4.00

Cc1nc2[nH]c(C(F)(F)C(F)(F)F)cc(=O)n2n1 [Example 7-41, 2-methyl-5-(pentafluoroethyl)[1,2,4]triazolo[1,5-a]pyrimidin-7(4H)-one]
pIC50: < 4.00

Cc1nc2[nH]c(CC(C)(C)C)cc(=O)n2n1 [Example 7-57, 5-(2,2-dimethylpropyl)-2-methyl[1,2,4]triazolo[1,5-a]pyrimidin-7(4H)-one]
pIC50: < 4.00

Cc1nc2[nH]c(-c3ccccc3F)cc(=O)n2n1 [Example 7-53, 5-(2-fluorophenyl)-2-methyl[1,2,4]triazolo[1,5-a]pyrimidin-7(4H)-one]
pIC50 [1]: 4.43

Cc1nc2[nH]c(-c3ccccc3Cl)cc(=O)n2n1 [Example 7-52, 5-(2-chlorophenyl)-2-methyl[1,2,4]triazolo[1,5-a]pyrimidin-7(4H)-one]
pIC50: < 4.00

CCOC(=O)c1[nH]c2nc(C)nn2c(=O)c1Cl [Example 7-13, ethyl 6-chloro-2-methyl-7-oxo-4,7-dihydro[1,2,4]triazolo[1,5-a]pyrimidine-5-carboxylate]
pIC50 [1]: 5.53

CCCCc1cc(=O)n2nc(C)nc2[nH]1 [Example 7-49, 5-butyl-2-methyl[1,2,4]triazolo[1,5-a]pyrimidin-7(4H)-one]
pIC50: < 4.00

Cc1[nH]c2nc(C3CCC3)nn2c(=O)c1C(C)C [Example 7-19, 2-cyclobutyl-5-methyl-6-(1-methylethyl)[1,2,4]triazolo[1,5-a]pyrimidin-7(4H)-one]
pIC50 [1]: 4.03

Cc1[nH]c2nc(-c3ccccc3Cl)nn2c(=O)c1C(C)C [Example 7-26, 2-(2-chlorophenyl)-5-methyl-6-(1-methylethyl)[1,2,4]triazolo[1,5-a]pyrimidin-7(4H)-one]
pIC50 [1]: 4.02

Cc1[nH]c2nc(C(C)C)nn2c(=O)c1C(C)C [Example 7-29, 5-methyl-2,6-bis(1-methylethyl)[1,2,4]triazolo[1,5-a]pyrimidin-7(4H)-one]
pIC50: 4.45

Cc1nc2[nH]c(CC3CC3)cc(=O)n2n1 [Example 7-63, 5-(cyclopropylmethyl)-2-methyl[1,2,4]triazolo[1,5-a]pyrimidin-7(4H)-one]
pIC50: < 4.00

Cc1nc2[nH]c(C(F)(F)F)cc(=O)n2n1 [Example 7-11, 2-methyl-5-(trifluoromethyl)-[1,2,4]triazolo[1,5-a]pyrimidin-7(4H)-one]
pIC50 [1]: 4.55

Cc1nc2[nH]c(C)c(Cc3ccccc3)c(=O)n2n1 [Example 7-4, 6-benzyl-2,5-dimethyl[1,2,4]triazolo[1,5-a]pyrimidin-7(4H)-one]
pIC50: < 4.00

Cc1nc2[nH]c(-c3cccc(Cl)c3)cc(=O)n2n1 [Example 7-54, 5-(3-chlorophenyl)-2-methyl[1,2,4]triazolo[1,5-a]pyrimidin-7(4H)-one]
pIC50 [1]: 4.91

Cc1nc2[nH]c(-c3ccccn3)cc(=O)n2n1 [Example 7-43, 2-methyl-5-pyridin-2-yl[1,2,4]triazolo[1,5-a]pyrimidin-7(4H)-one]
pIC50 [1]: 4.63

Cc1nc2[nH]c(-c3ccc(F)cc3)cc(=O)n2n1 [Example 7-39, 5-(4-fluorophenyl)-2-methyl[1,2,4]triazolo[1,5-a]pyrimidin-7(4H)-one]
pIC50 [1]: 5.09

COC(=O)Cc1c(C)[nH]c2nc(C(=O)OC)nn2c1=O [Example 7-15, methyl 6-(2-methoxy-2-oxoethyl)-5-methyl-7-oxo-4,7-dihydro[1,2,4]triazolo[1,5-a]pyrimidine-2-carboxylate]
pIC50 [1]: 4.17

Cc1nc2[nH]c(C3CC3)c(C)c(=O)n2n1 [Example 7-64, 5-cyclopropyl-2,6-dimethyl[1,2,4]triazolo[1,5-a]pyrimidin-7(4H)-one]
pIC50 [1]: 4.35

Cc1nc2[nH]c(C)c(C)c(=O)n2n1 [Example 7-7, 2,5,6-trimethyl[1,2,4]triazolo[1,5-a]pyrimidin-7(4H)-one]
pIC50 [1]: 4.49

Cc1nc2[nH]c(-c3ccccc3)cc(=O)n2n1 [Example 7-69, 2-methyl-5-phenyl-[1,2,4]triazolo[1,5-a]pyrimidin-7(4H)-one]
pIC50: 5.12

Cc1nc2[nH]c(C3CC3)cc(=O)n2n1 [Example 7-46, 5-cyclopropyl-2-methyl[1,2,4]triazolo[1,5-a]pyrimidin-7(4H)-one]
pIC50: < 4.00

Cc1nc2[nH]c(C3CCCC3)cc(=O)n2n1 [Example 7-61, 5-cyclopentyl-2-methyl[1,2,4]triazolo[1,5-a]pyrimidin-7(4H)-one]
pIC50: < 4.00

CCc1c(-c2ccn(C)n2)[nH]c2nc(C)nn2c1=O [Example 7-33, 6-ethyl-2-methyl-5-(1-methyl-1H-pyrazol-3-yl)[1,2,4]triazolo[1,5-a]pyrimidin-7(4H)-one]
pIC50 [1]: 5.37

Cc1nc2[nH]c(C)c(C3CCCC3)c(=O)n2n1 [Example 7-45, 6-cyclopentyl-2,5-dimethyl[1,2,4]triazolo[1,5-a]pyrimidin-7(4H)-one]
pIC50: < 4.00

COc1c(C(F)(F)F)[nH]c2nc(C)nn2c1=O [Example 7-42, 6-methoxy-2-methyl-5-(trifluoromethyl)[1,2,4]triazolo[1,5-a]pyrimidin-7(4H)-one]
pIC50 [1]: 4.68

Cc1nc2[nH]c(-c3ccc(Cl)cc3)cc(=O)n2n1 [Example 7-51, 5-(4-chlorophenyl)-2-methyl[1,2,4]triazolo[1,5-a]pyrimidin-7(4H)-one]
pIC50: 4.85

Cc1cc(=O)n2nc(-c3ccncc3)nc2[nH]1 [Example 7-10, 5-methyl-2-(pyridin-4-yl)-[1,2,4]triazolo[1,5-a]pyrimidin-7(4H)-one]
pIC50 [1]: 5.37

Cc1nc2[nH]c(C3CCCC3)c(C)c(=O)n2n1 [Example 7-66, 5-cyclopentyl-2,6-dimethyl[1,2,4]triazolo[1,5-a]pyrimidin-7(4H)-one]
pIC50 [1]: 4.56

Cc1[nH]c2nc(C(F)(F)F)nn2c(=O)c1C(C)C [Example 7-32, 5-methyl-6-(1-methylethyl)-2-(trifluoromethyl)[1,2,4]triazolo[1,5-a]pyrimidin-7(4H)-one]
pIC50 [1]: 5.68

Cc1nc2[nH]c(C3CCOCC3)cc(=O)n2n1 [Example 7-58, 2-methyl-5-(tetrahydro-2H-pyran-4-yl)[1,2,4]triazolo[1,5-a]pyrimidin-7(4H)-one]
pIC50: < 4.00

CCc1c(C(F)(F)F)[nH]c2nc(C)nn2c1=O [Example 7-60, 6-ethyl-2-methyl-5-(trifluoromethyl)[1,2,4]triazolo[1,5-a]pyrimidin-7(4H)-one]
pIC50 [1]: 5.19

Cc1nc2[nH]c(-c3ccoc3)cc(=O)n2n1 [Example 7-40, 5-furan-3-yl-2-methyl[1,2,4]triazolo[1,5-a]pyrimidin-7(4H)-one]
pIC50 [1]: 4.44

Cc1[nH]c2nc(C3CC3)nn2c(=O)c1C(C)C [Example 7-18, 2-cyclopropyl-5-methyl-6-(1-methylethyl)[1,2,4]triazolo[1,5-a]pyrimidin-7(4H)-one]
pIC50 [1]: 4.31

Cc1[nH]c2nc(Cl)nn2c(=O)c1C(C)C [Example 7-34, 2-chloro-5-methyl-6-(1-methylethyl)[1,2,4]triazolo[1,5-a]pyrimidin-7(4H)-one]
pIC50 [1]: 5.90

Cc1nc2[nH]c(-c3ccn(C)n3)cc(=O)n2n1 [Example 7-36, 2-methyl-5-(1-methyl-1H-pyrazol-3-yl)[1,2,4]triazolo[1,5-a]pyrimidin-7(4H)-one]
pIC50 [1]: 4.59
